Measured values published in US10570155B2, “Imidazooxazole derivative having antitumor effect, and pharmaceutical composition including same” (KOREA INSTITUTE OF SCIENCE AND TECHNOLOGY, priority 2016, dated 2020).
pIC50: −log10 of the molar value. Where two headings read alike, the source gives them in different places.

How the values were obtained:
A375P cell line = experiment: Inhibitory activity against proliferation of A375P melanoma cell line (MTT assay); assay type: cell-based; conditions: Homo sapiens
Protocol: To examine whether the compounds (2II, 9II, 10II, and 12II to 15II) of the present disclosure have remarkable effects, as compared with imidazothiazole-based compounds previously disclosed by the present inventors (M. S. Abdel-Maksoud et al./European Journal of Medicinal Chemistry 95 (2015) 453-463), inhibitory activities thereof against proliferation of A375P cell line which is a melanoma cell line were compared by the following experiments.
A375P cell line purchased from ATCC was cultured in a DMEM medium [containing 10% FBS and 1% penicillin/streptomycin] under 5% CO2 at 37° C. The cultured A375P cell line was collected using 0.05% trypsin-0.02% EDTA, and inoculated at a cell density of 5×10^3 cells per well in a 96-well plate. To measure cell viability, MTT [3-(4,5-dimethylthiazol-2-yl)-2,5-diphenyltetrazolium bromide] assay (CellTiter 96 Assay, Promega) was performed as follows. MTT assay was performed in accordance with the guidelines of CellTiter 96® (Promega).

LOX IMVI = experiment: NCI cancer cell line panel screening (SRB), melanoma cell line LOX IMVI; assay type: cell-based, human; conditions: read-out: IC50 against melanoma cell line in vitro
Protocol: (§1) According to the standard protocol (http://dtp.nci.nih.gov/dtpstandard/dwindex/index.isp) of the US National Cancer Institute (NCI) (www.dtp.nci.nih.gov), screening of a cancer cell line panel was performed. […] For a general screening experiment, cells were inoculated in 96-well microtiter plates in 100 μl at a plating density ranging from 5000 cells/well to 40,000 cells/well depending on the doubling time of individual cell lines. After cell inoculation, the microtiter plates were incubated at 37° C., 5% CO2, 95% air, and 100% relative humidity for 24 hours prior to addition of test compounds. 24 hours later, two plates of each cell line were fixed in situ with trichloroacetic acid (TCA) to measure the cell population for each cell line at the time of test compound addition (Tz). Test compounds were solubilized in dimethyl sulfoxide at 400-fold the intended final maximum test concentration, and stored frozen prior to use. At the time of compound addition, an aliquot of frozen concentrate was thawed and diluted to twice the intended final maximum test concentration with a complete medium containing 50 μg/ml of gentamicin. Additional four concentration of 10-fold or ½ log serial dilutions were made to provide a total of five compound concentrations plus control. Aliquots of 100 μl of these different compound dilutions were added to appropriate microtiter wells already containing 100 μl of medium, resulting in the required final compound concentrations.
(§2) Following compound addition, the plates were incubated for additional 48 hours at 37° C., 5% CO2, 95% air, and 100% relative humidity. For adherent cells, the assay was terminated by the addition of cold TCA. Cells were fixed in situ by the gentle addition of 50 μl of cold 50% (w/v) TCA (final concentration, 10% TAC) and incubated at 4° C. for 60 minutes. The supernatant was discarded, and the plates were washed five times with tap water and air-dried. A sulforhodamine B (SRB) solution (100 μl) at 0.4% (w/v) in 1% acetic acid was added to each well, and plates were incubated at room temperature for 10 minutes. After staining, unbound dye was removed by washing five times with 1% acetic acid and the plates were air-dried. […] For suspension cells, the methodology was the same except that the assay was terminated by fixing settled cells at the bottom of the wells by gently adding 50 μl of 80% TCA (final concentration, 16% TCA). Using the seven absorbance measurements [time zero (Tz), control growth (C), and test growth rate in the presence of compound at the five concentration levels (Ti)], the growth percentage was calculated at each of the compound concentration levels. Growth inhibition percentage was calculated as follows: [(Ti−Tz)/(C−Tz)]×100 for concentrations for which Ti>/=Tz [(Ti−Tz)/Tz]×100 for concentrations for which Ti<Tz.

MDA-MB-435 = experiment: NCI cancer cell line panel screening (SRB), melanoma cell line MDA-MB-435; assay type: cell-based; conditions: Homo sapiens, read-out: IC50 against melanoma cell line in vitro
Protocol: (§3) According to the standard protocol (http://dtp.nci.nih.gov/dtpstandard/dwindex/index.isp) of the US National Cancer Institute (NCI) (www.dtp.nci.nih.gov), screening of a cancer cell line panel was performed. Briefly, human cell lines were allowed to grow in an RPMI 1640 medium containing 5% FBS and 2 mM L-glutamine. For a general screening experiment, cells were inoculated in 96-well microtiter plates in 100 μl at a plating density ranging from 5000 cells/well to 40,000 cells/well depending on the doubling time of individual cell lines. After cell inoculation, the microtiter plates were incubated at 37° C., 5% CO2, 95% air, and 100% relative humidity for 24 hours prior to addition of test compounds. 24 hours later, two plates of each cell line were fixed in situ with trichloroacetic acid (TCA) to measure the cell population for each cell line at the time of test compound addition (Tz). Test compounds were solubilized in dimethyl sulfoxide at 400-fold the intended final maximum test concentration, and stored frozen prior to use. At the time of compound addition, an aliquot of frozen concentrate was thawed and diluted to twice the intended final maximum test concentration with a complete medium containing 50 μg/ml of gentamicin. Additional four concentration of 10-fold or ½ log serial dilutions were made to provide a total of five compound concentrations plus control. Aliquots of 100 μl of these different compound dilutions were added to appropriate microtiter wells already containing 100 μl of medium, resulting in the required final compound concentrations.
(§4) Following compound addition, the plates were incubated for additional 48 hours at 37° C., 5% CO2, 95% air, and 100% relative humidity. For adherent cells, the assay was terminated by the addition of cold TCA. Cells were fixed in situ by the gentle addition of 50 μl of cold 50% (w/v) TCA (final concentration, 10% TAC) and incubated at 4° C. for 60 minutes. The supernatant was discarded, and the plates were washed five times with tap water and air-dried. A sulforhodamine B (SRB) solution (100 μl) at 0.4% (w/v) in 1% acetic acid was added to each well, and plates were incubated at room temperature for 10 minutes. After staining, unbound dye was removed by washing five times with 1% acetic acid and the plates were air-dried. Bound stain was subsequently solubilized with 10 mM Trizma base, and the absorbance was read on an automated plate reader at a wavelength of 515 nm. For suspension cells, the methodology was the same except that the assay was terminated by fixing settled cells at the bottom of the wells by gently adding 50 μl of 80% TCA (final concentration, 16% TCA). Using the seven absorbance measurements [time zero (Tz), control growth (C), and test growth rate in the presence of compound at the five concentration levels (Ti)], the growth percentage was calculated at each of the compound concentration levels. Growth inhibition percentage was calculated as follows: [(Ti−Tz)/(C−Tz)]×100 for concentrations for which Ti>/=Tz [(Ti−Tz)/Tz]×100 for concentrations for which Ti<Tz.

M14 = experiment: NCI cancer cell line panel screening (SRB), melanoma cell line M14; assay type: cell-based; conditions: Homo sapiens, read-out: IC50 against melanoma cell line in vitro
Protocol: as §3, §4

SK-MEL-5 = experiment: NCI cancer cell line panel screening (SRB), melanoma cell line SK-MEL-5; assay type: cell-based, human; conditions: read-out: IC50 against melanoma cell line in vitro
Protocol: as §1, §2

SK-MEL-2 = experiment: NCI cancer cell line panel screening (SRB), melanoma cell line SK-MEL-2; assay type: cell-based, human; conditions: read-out: IC50 against melanoma cell line in vitro
Protocol: as §1, §2

SK-MEL-28 = experiment: NCI cancer cell line panel screening (SRB), melanoma cell line SK-MEL-28; assay type: cell-based, human; conditions: read-out: IC50 against melanoma cell line in vitro
Protocol: as §1, §2

UACC-62 = experiment: NCI cancer cell line panel screening (SRB), melanoma cell line UACC-62; assay type: cell-based; conditions: Homo sapiens, read-out: IC50 against melanoma cell line in vitro
Protocol: as §3, §4

A375 = experiment: NCI cancer cell line panel screening (SRB), melanoma cell line A375; assay type: cell-based; conditions: Homo sapiens, A-375, read-out: IC50 against melanoma cell line in vitro
Protocol: as §3, §4

V600E-B-RAF = V600E-B-RAF (Homo sapiens (Human), UniProt P15056, V600E); experiment: Protein kinase enzymatic activity (Reaction Biology kinase hotspot, 33P-ATP); assay type: biochemical; conditions: read-out: Inhibitory effect against kinase activity, V600E-B-RAF (IC50)
V600E-B-RAF, sequence (P15056 whole entry V600E): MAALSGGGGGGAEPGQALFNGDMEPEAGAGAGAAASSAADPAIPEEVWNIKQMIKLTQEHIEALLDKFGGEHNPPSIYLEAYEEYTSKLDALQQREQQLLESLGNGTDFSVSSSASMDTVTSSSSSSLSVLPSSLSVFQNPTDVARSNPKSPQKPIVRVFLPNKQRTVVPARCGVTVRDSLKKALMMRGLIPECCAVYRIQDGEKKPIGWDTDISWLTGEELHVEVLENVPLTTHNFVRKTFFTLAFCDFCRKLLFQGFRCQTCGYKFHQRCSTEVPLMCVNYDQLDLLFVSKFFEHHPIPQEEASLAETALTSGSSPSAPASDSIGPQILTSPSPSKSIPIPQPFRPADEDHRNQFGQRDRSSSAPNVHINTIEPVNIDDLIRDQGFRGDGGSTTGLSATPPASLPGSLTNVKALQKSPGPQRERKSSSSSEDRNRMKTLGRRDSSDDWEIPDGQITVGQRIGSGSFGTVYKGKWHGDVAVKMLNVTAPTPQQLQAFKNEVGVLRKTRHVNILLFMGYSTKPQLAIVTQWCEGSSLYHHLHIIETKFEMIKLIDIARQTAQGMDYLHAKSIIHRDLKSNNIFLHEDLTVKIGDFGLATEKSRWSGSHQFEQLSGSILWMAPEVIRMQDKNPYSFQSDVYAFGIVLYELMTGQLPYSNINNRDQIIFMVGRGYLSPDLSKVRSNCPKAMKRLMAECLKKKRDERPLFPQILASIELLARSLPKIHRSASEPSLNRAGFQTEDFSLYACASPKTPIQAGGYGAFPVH
Protocol: (§5) Reaction biology kinase hotspot service (http://www.reactionbiology.com) was used to measure IC50. In a final reaction volume of 25 μL, kinase (5 mU to 10 mU) was incubated with 25 mM Tris (pH 7.5), 0.02 mM EGTA, 0.66 mg/ml of myelin basic protein, 10 mM magnesium acetate, and [^33P-ATP] (specific activity of about 500 CPM/pmol, concentration as required). The reaction was initiated by addition of Mg-ATP mix. After incubation for 40 min at room temperature, the reaction was stopped by addition of 5 μl of a 3% phosphoric acid solution. 10 μL of the reaction was then spotted onto a P30 filtermat and washed three times for 5 minutes in 75 mM phosphoric acid and once in methanol prior to drying and scintillation counting.

B-RAF = B-RAF (Homo sapiens (Human), UniProt P15056); experiment: as above; assay type: biochemical; conditions: read-out: Inhibitory effect against kinase activity, B-RAF (IC50)
B-RAF, sequence (P15056 whole entry): as the sequence (P15056 whole entry V600E) above, with E600V counted along it
Protocol: as §5

O=S1(=O)NCCN1CCNc1nccc(-c2c(-c3cccc(O)c3)nc3sccn23)n1
pIC50 (A375P cell line): 6.20

CN1CCN(CCNc2nccc(-c3c(-c4cccc(O)c4)nc4sccn34)n2)S1(=O)=O
pIC50 (A375P cell line): 7.22

O=S1(=O)N(CCNc2nccc(-c3c(-c4cccc(O)c4)nc4sccn34)n2)CCN1Cc1ccccc1
pIC50 (A375P cell line): 6.60

CC1(C)CN(CCNc2nccc(-c3c(-c4cccc(O)c4)nc4sccn34)n2)S(=O)(=O)N1
pIC50 (A375P cell line): 6.06

O=S1(=O)NCCCN1CCNc1nccc(-c2c(-c3cccc(O)c3)nc3sccn23)n1
pIC50 (A375P cell line): 6.14

CN1CCCN(CCNc2nccc(-c3c(-c4cccc(O)c4)nc4sccn34)n2)S1(=O)=O
pIC50 (A375P cell line): 6.33

CC(C)(C)OC(=O)N1CCCN(CCNc2nccc(-c3c(-c4cccc(O)c4)nc4sccn34)n2)S1(=O)=O
pIC50 (A375P cell line): 6.33

CC1(C)CN(CCNc2nccc(-c3c(-c4cccc(O)c4)nc4occn34)n2)S(=O)(=O)N1 [5II, 2-(2-((4-(6-(3-Hydroxylphenyl)imidazo[2,1-b]oxazol-5-yl)pyrimidin-2-yl)amino)ethyl)-4,4-dimethyl-1,2,5-thiadiazolidine 1,1-dioxide]
pIC50 (LOX IMVI; Homo sapiens): 5.64
pIC50 (MDA-MB-435): 6.13
pIC50 (M14): 6.49
pIC50 (SK-MEL-5; Homo sapiens): 6.47
pIC50 (SK-MEL-2; Homo sapiens): 5.80
pIC50 (SK-MEL-28; Homo sapiens): 6.66
pIC50 (UACC-62): 7.05
pIC50 (A375): 6.06

CN1CCCN(CCNc2nccc(-c3c(-c4cccc(O)c4)nc4occn34)n2)S1(=O)=O [6II, 2-(2-((4-(6-(3-Hydroxylphenyl)imidazo[2,1-b]oxazol-5-yl)pyrimidin-2-yl)amino)ethyl)-6-methyl-1,2,6-thiadiazinane 1,1-dioxide]
pIC50 (LOX IMVI; Homo sapiens): 5.36
pIC50 (MDA-MB-435): 6.31
pIC50 (M14): 6.80
pIC50 (SK-MEL-5; Homo sapiens): 6.62
pIC50 (SK-MEL-2; Homo sapiens): 5.64
pIC50 (SK-MEL-28; Homo sapiens): 6.62
pIC50 (UACC-62): 7.24
pIC50 (A375): 6.33

O=S1(=O)NCCCN1CCNc1nccc(-c2c(-c3cccc(O)c3)nc3occn23)n1 [8II, 2-(2-((4-(6-(3-Hydroxylphenyl)imidazo[2,1-b]oxazol-5-yl)pyrimidin-2-yl)amino)ethyl)-1,2,6-thiadiazinane 1,1-dioxide]
pIC50 (LOX IMVI; Homo sapiens): 5.67
pIC50 (MDA-MB-435): 6.42
pIC50 (M14): 6.52
pIC50 (SK-MEL-5; Homo sapiens): 6.77
pIC50 (SK-MEL-2; Homo sapiens): 6.42
pIC50 (SK-MEL-28; Homo sapiens): 6.77
pIC50 (UACC-62): 7.23
pIC50 (A375): 7.24

COc1cccc(-c2nc3sccn3c2-c2ccnc(NCCNS(=O)(=O)c3ccc(C(F)(F)F)cc3)n2)c1 [8III, N-(2-((4-(6-(3-methoxyphenyl)imidazo[2,1-b]thiazol-5-yl)pyrimidin-2-yl)amino)ethyl)-4-(trifluoromethyl)benzenesulfonamide]
pIC50 (LOX IMVI): 5.49
pIC50 (SK-MEL-5): 5.91
pIC50 (V600E-B-RAF): 7.01
pIC50 (B-RAF): 6.16
pIC50 (SK-MEL-2): 5.52
pIC50 (SK-MEL-28): 5.43
pIC50 (UACC-62): 6.32

CCN1CCN(CCNc2nccc(-c3c(-c4cccc(O)c4)nc4occn34)n2)S1(=O)=O [drawing 151]
pIC50 (A375P cell line): 6.72

O=S1(=O)NCCN1CCNc1nccc(-c2c(-c3ccc(F)cc3)nc3sccn23)n1 [reference compound]
pIC50 (A375P cell line): 5.72

CN1CCN(CCNc2nccc(-c3c(-c4ccc(F)cc4)nc4sccn34)n2)S1(=O)=O [reference compound]
pIC50 (A375P cell line): 6.22

CCN1CCN(CCNc2nccc(-c3c(-c4ccc(F)cc4)nc4sccn34)n2)S1(=O)=O [reference compound]
pIC50 (A375P cell line): 6.42

O=S1(=O)N(CCNc2nccc(-c3c(-c4ccc(F)cc4)nc4sccn34)n2)CCN1Cc1ccccc1 [reference compound]
pIC50 (A375P cell line): < 5.00

CC(C)(C)OC(=O)N1CCN(CCNc2nccc(-c3c(-c4ccc(F)cc4)nc4sccn34)n2)S1(=O)=O [reference compound]
pIC50 (A375P cell line): < 5.00
